Measured values from US12590067B2, “Herbicidal cyclohexanedione derivatives” (SYNGENTA CROP PROTECTION AG, priority 2019, dated 2026).

Columns and labels:
Assay in all cases: Glasshouse herbicidal test, pre- and post-emergence, percentage damage to the plant
Assay type in all cases: in vivo
[1] = test system: Lolium perenne (LOLPE); conditions: 250 g/h, evaluated after 13 days; for LOLPE POST percentage damage caused to the plant (five-point scale): post-emergence; for LOLPE PRE percentage damage caused to the plant (five-point scale): pre-emergence
Experimental: (§1) Seeds of a variety of test species are sown in standard soil in pots (Lolium perenne (LOLPE), Setaria faberi (SETFA), Alopecurus myosuroides (ALOMY), Echinochloa crus-galli (ECHCG), Avena fatua (AVEFA)). After cultivation for one day (pre-emergence) or after 8 days cultivation (post-emergence) under controlled conditions in a glasshouse (at 24/16° C., day/night; 14 hours light; 65% humidity), the plants are sprayed with an aqueous spray solution derived from the formulation of the technical active ingredient in acetone/water (50:50) solution containing 0.5% Tween 20 (polyoxyethelyene sorbitan monolaurate, CAS RN 9005-64-5). Compounds are applied at 250 g/h. The test plants are then grown in a glasshouse under controlled conditions in a glasshouse (at 24/16° C., day/night; 14 hours light; 65% humidity) and watered twice daily. After 13 days for pre and post-emergence, the test is evaluated for the percentage damage caused to the plant. The biological activities are shown in the following table on a five-point scale (5=80-100%; 4=60-79%; 3=40-59%; 2=20-39%; 1=0-19%).

[2] = test system: Echinochloa crus-galli (ECHCG); conditions: 250 g/h, evaluated after 13 days; for ECHCG POST percentage damage caused to the plant (five-point scale): post-emergence; for ECHCG PRE percentage damage caused to the plant (five-point scale): pre-emergence
Experimental: as §1

[3] = test system: Setaria faberi (SETFA); conditions: 250 g/h, evaluated after 13 days; for SETFA POST percentage damage caused to the plant (five-point scale): post-emergence; for SETFA PRE percentage damage caused to the plant (five-point scale): pre-emergence
Experimental: as §1

[4] = test system: Avena fatua (AVEFA); conditions: 250 g/h, evaluated after 13 days; for AVEFA POST percentage damage caused to the plant (five-point scale): post-emergence; for AVEFA PRE percentage damage caused to the plant (five-point scale): pre-emergence
Experimental: as §1

[5] = test system: Alopecurus myosuroides (ALOMY); conditions: 250 g/h, evaluated after 13 days; for ALOMY POST percentage damage caused to the plant (five-point scale): post-emergence; for ALOMY PRE percentage damage caused to the plant (five-point scale): pre-emergence
Experimental: as §1

CC#Cc1cc(Cl)c(C2C(=O)CC3(CCN(C(C)=O)CC3)CC2=O)c(OC)c1 [Compound A1]
5 (5=80-100%): LOLPE POST percentage damage caused to the plant (five-point scale) [1] | LOLPE PRE percentage damage caused to the plant (five-point scale) [1] | ECHCG POST percentage damage caused to the plant (five-point scale) [2] | ECHCG PRE percentage damage caused to the plant (five-point scale) [2] | SETFA POST percentage damage caused to the plant (five-point scale) [3] | SETFA PRE percentage damage caused to the plant (five-point scale) [3] | AVEFA POST percentage damage caused to the plant (five-point scale) [4] | AVEFA PRE percentage damage caused to the plant (five-point scale) [4]

CC#Cc1cc(Cl)c(C2C(=O)CC3(CCN(S(=O)(=O)CC)CC3)CC2=O)c(OC)c1 [Compound A2]
5 (5=80-100%): LOLPE POST percentage damage caused to the plant (five-point scale) [1] | LOLPE PRE percentage damage caused to the plant (five-point scale) [1] | ALOMY POST percentage damage caused to the plant (five-point scale) [5] | ALOMY PRE percentage damage caused to the plant (five-point scale) [5] | ECHCG POST percentage damage caused to the plant (five-point scale) [2] | ECHCG PRE percentage damage caused to the plant (five-point scale) [2] | SETFA POST percentage damage caused to the plant (five-point scale) [3] | SETFA PRE percentage damage caused to the plant (five-point scale) [3] | AVEFA POST percentage damage caused to the plant (five-point scale) [4] | AVEFA PRE percentage damage caused to the plant (five-point scale) [4]

CC#Cc1cc(Cl)c(C2C(=O)CC3(CCN(C(=O)c4ccccc4)CC3)CC2=O)c(OC)c1 [Compound A3, 3-benzoyl-9-(2-chloro-6-methoxy-4-prop-1-ynyl-phenyl)-3-azaspiro[5.5]undecane-8,10-dione]
5 (5=80-100%): LOLPE POST percentage damage caused to the plant (five-point scale) [1] | LOLPE PRE percentage damage caused to the plant (five-point scale) [1] | ALOMY POST percentage damage caused to the plant (five-point scale) [5] | ALOMY PRE percentage damage caused to the plant (five-point scale) [5] | ECHCG POST percentage damage caused to the plant (five-point scale) [2] | ECHCG PRE percentage damage caused to the plant (five-point scale) [2] | SETFA POST percentage damage caused to the plant (five-point scale) [3] | SETFA PRE percentage damage caused to the plant (five-point scale) [3] | AVEFA POST percentage damage caused to the plant (five-point scale) [4] | AVEFA PRE percentage damage caused to the plant (five-point scale) [4]

CC#Cc1cc(Cl)c(C2C(=O)CC3(CCN(C(=O)c4ccccn4)CC3)CC2=O)c(OC)c1 [Compound A4]
5 (5=80-100%): LOLPE POST percentage damage caused to the plant (five-point scale) [1] | LOLPE PRE percentage damage caused to the plant (five-point scale) [1] | ALOMY POST percentage damage caused to the plant (five-point scale) [5] | ALOMY PRE percentage damage caused to the plant (five-point scale) [5] | ECHCG POST percentage damage caused to the plant (five-point scale) [2] | ECHCG PRE percentage damage caused to the plant (five-point scale) [2] | SETFA POST percentage damage caused to the plant (five-point scale) [3] | SETFA PRE percentage damage caused to the plant (five-point scale) [3] | AVEFA POST percentage damage caused to the plant (five-point scale) [4] | AVEFA PRE percentage damage caused to the plant (five-point scale) [4]

CC#Cc1cc(Cl)c(C2C(=O)CC3(CCN(C(=O)COC)CC3)CC2=O)c(OC)c1 [Compound A5]
5 (5=80-100%): LOLPE POST percentage damage caused to the plant (five-point scale) [1] | LOLPE PRE percentage damage caused to the plant (five-point scale) [1] | ALOMY POST percentage damage caused to the plant (five-point scale) [5] | ALOMY PRE percentage damage caused to the plant (five-point scale) [5] | ECHCG POST percentage damage caused to the plant (five-point scale) [2] | ECHCG PRE percentage damage caused to the plant (five-point scale) [2] | SETFA POST percentage damage caused to the plant (five-point scale) [3] | SETFA PRE percentage damage caused to the plant (five-point scale) [3] | AVEFA POST percentage damage caused to the plant (five-point scale) [4] | AVEFA PRE percentage damage caused to the plant (five-point scale) [4]

CC#Cc1cc(Cl)c(C2C(=O)CC3(CCN(C(=O)NC(C)(C)C)CC3)CC2=O)c(OC)c1 [Compound A6]
5 (5=80-100%): LOLPE POST percentage damage caused to the plant (five-point scale) [1] | LOLPE PRE percentage damage caused to the plant (five-point scale) [1] | ALOMY POST percentage damage caused to the plant (five-point scale) [5] | ALOMY PRE percentage damage caused to the plant (five-point scale) [5] | ECHCG POST percentage damage caused to the plant (five-point scale) [2] | ECHCG PRE percentage damage caused to the plant (five-point scale) [2] | SETFA POST percentage damage caused to the plant (five-point scale) [3] | SETFA PRE percentage damage caused to the plant (five-point scale) [3] | AVEFA POST percentage damage caused to the plant (five-point scale) [4] | AVEFA PRE percentage damage caused to the plant (five-point scale) [4]

CC#Cc1cc(Cl)c(C2C(=O)CC3(CCN(C(=O)NC(=O)C(C)(C)C)CC3)CC2=O)c(OC)c1 [Compound A7]
5 (5=80-100%): LOLPE POST percentage damage caused to the plant (five-point scale) [1] | LOLPE PRE percentage damage caused to the plant (five-point scale) [1] | ALOMY POST percentage damage caused to the plant (five-point scale) [5] | ALOMY PRE percentage damage caused to the plant (five-point scale) [5] | ECHCG POST percentage damage caused to the plant (five-point scale) [2] | ECHCG PRE percentage damage caused to the plant (five-point scale) [2] | SETFA POST percentage damage caused to the plant (five-point scale) [3] | SETFA PRE percentage damage caused to the plant (five-point scale) [3] | AVEFA POST percentage damage caused to the plant (five-point scale) [4] | AVEFA PRE percentage damage caused to the plant (five-point scale) [4]

CC#Cc1cc(Cl)c(C2C(=O)CC3(CCN(C(=O)C4CC4)CC3)CC2=O)c(OC)c1 [Compound A8]
5 (5=80-100%): LOLPE POST percentage damage caused to the plant (five-point scale) [1] | LOLPE PRE percentage damage caused to the plant (five-point scale) [1] | ALOMY POST percentage damage caused to the plant (five-point scale) [5] | ALOMY PRE percentage damage caused to the plant (five-point scale) [5] | ECHCG POST percentage damage caused to the plant (five-point scale) [2] | ECHCG PRE percentage damage caused to the plant (five-point scale) [2] | SETFA POST percentage damage caused to the plant (five-point scale) [3] | SETFA PRE percentage damage caused to the plant (five-point scale) [3] | AVEFA POST percentage damage caused to the plant (five-point scale) [4] | AVEFA PRE percentage damage caused to the plant (five-point scale) [4]

CC#Cc1cc(Cl)c(C2C(=O)CC3(CCN(C(=O)C(F)F)CC3)CC2=O)c(OC)c1 [Compound A9]
5 (5=80-100%): LOLPE POST percentage damage caused to the plant (five-point scale) [1] | LOLPE PRE percentage damage caused to the plant (five-point scale) [1] | ALOMY POST percentage damage caused to the plant (five-point scale) [5] | ALOMY PRE percentage damage caused to the plant (five-point scale) [5] | ECHCG POST percentage damage caused to the plant (five-point scale) [2] | ECHCG PRE percentage damage caused to the plant (five-point scale) [2] | SETFA POST percentage damage caused to the plant (five-point scale) [3] | SETFA PRE percentage damage caused to the plant (five-point scale) [3] | AVEFA POST percentage damage caused to the plant (five-point scale) [4] | AVEFA PRE percentage damage caused to the plant (five-point scale) [4]

CC#Cc1cc(Cl)c(C2C(=O)CC3(CCN(C(=O)C(C)(C)C)CC3)CC2=O)c(OC)c1 [Compound A10]
5 (5=80-100%): LOLPE POST percentage damage caused to the plant (five-point scale) [1] | LOLPE PRE percentage damage caused to the plant (five-point scale) [1] | ALOMY POST percentage damage caused to the plant (five-point scale) [5] | ALOMY PRE percentage damage caused to the plant (five-point scale) [5] | ECHCG POST percentage damage caused to the plant (five-point scale) [2] | ECHCG PRE percentage damage caused to the plant (five-point scale) [2] | SETFA POST percentage damage caused to the plant (five-point scale) [3] | SETFA PRE percentage damage caused to the plant (five-point scale) [3] | AVEFA POST percentage damage caused to the plant (five-point scale) [4] | AVEFA PRE percentage damage caused to the plant (five-point scale) [4]
